pIC50: −log10 of the molar value. Calls of active or inactive are those of the source. No cut-off for these calls is given here.
Columns and labels:
[1] = molecular target: Sodium-dependent serotonin transporter (Homo sapiens, UniProt P31645); assay: Inhibition of SERT receptor (unknown origin)
[2] = Volume of distribution at steady state in Beagle dog at 1 mg/kg, iv measured upto 24 hrs by LC-MS/MS analysis; assay type: ADME, organism-based, Canis lupus familiaris; details: in vivo, read-out: Vdss
[3] = Volume of distribution at steady state in Sprague-Dawley rat at 1 mg/kg, iv measured upto 24 hrs by LC-MS/MS analysis; assay type: ADME, organism-based; details: in vivo, read-out: Vdss
[4] = Cmax in Beagle dog at 1 mg/kg, iv measured upto 24 hrs by LC-MS/MS analysis; assay type: ADME, organism-based, Canis lupus familiaris; parameters: dose 1 mg/kg, time < 24 hrs, route iv; details: in vivo
[5] = Cmax in Sprague-Dawley rat at 2.5 mg/kg, po measured upto 24 hrs by LC-MS/MS analysis; assay type: ADME, organism-based; parameters: dose 2.5 mg/kg, time < 24 hrs, route po; details: in vivo
[6] = Cmax in Beagle dog at 5 mg/kg, po measured upto 24 hrs by LC-MS/MS analysis; assay type: ADME, organism-based, Canis lupus familiaris; parameters: time < 24 hrs, dose 5 mg/kg, route po; details: in vivo
[7] = AUC (0 to t) in Sprague-Dawley rat at 1 mg/kg, iv measured upto 24 hrs by LC-MS/MS analysis; assay type: ADME, organism-based; parameters: time < 24 hrs, dose 1 mg/kg, route iv; details: in vivo; for AUCt: 24 h
[8] = AUC (0 to t) in Beagle dog at 1 mg/kg, iv measured upto 24 hrs by LC-MS/MS analysis; assay type: ADME, organism-based, Canis lupus familiaris; parameters: dose 1 mg/kg, time < 24 hrs, route iv; details: in vivo
[9] = AUC (0 to t) in Sprague-Dawley rat at 2.5 mg/kg, po measured upto 24 hrs by LC-MS/MS analysis; assay type: ADME, organism-based; parameters: dose 2.5 mg/kg, time < 24 hrs, route po; details: in vivo
[10] = AUC (0 to t) in Beagle dog at 5 mg/kg, po measured upto 24 hrs by LC-MS/MS analysis; assay type: ADME, organism-based, Canis lupus familiaris; parameters: dose 5 mg/kg, time < 24 hrs, route po; details: in vivo
[11] = Half life in Sprague-Dawley rat at 1 mg/kg, iv measured upto 24 hrs by LC-MS/MS analysis; assay type: ADME, organism-based; details: in vivo
[12] = Half life in Beagle dog at 1 mg/kg, iv measured upto 24 hrs by LC-MS/MS analysis; assay type: ADME, organism-based, Canis lupus familiaris; details: in vivo
[13] = Half life in Sprague-Dawley rat at 2.5 mg/kg, po measured upto 24 hrs by LC-MS/MS analysis; assay type: ADME, organism-based; details: in vivo
[14] = Half life in Beagle dog at 5 mg/kg, po measured upto 24 hrs by LC-MS/MS analysis; assay type: ADME, organism-based, Canis lupus familiaris; details: in vivo
[15] = Clearance in Sprague-Dawley rat at 1 mg/kg, iv measured upto 24 hrs by LC-MS/MS analysis; assay type: ADME, organism-based; details: in vivo; for CL: iv, 1 mg/kg, 24 h
[16] = Oral bioavailability in Sprague-Dawley rat at 2.5 mg/kg measured upto 24 hrs by LC-MS/MS analysis; assay type: ADME, organism-based; details: in vivo
[17] = Oral bioavailability in Sprague-Dawley rat at 5 mg/kg measured upto 24 hrs by LC-MS/MS analysis; assay type: ADME, organism-based; details: in vivo
[18] = Drug concentration in Sprague-Dawley rat plasma at 10 mg/kg, ip measured at 15 min by LC/MS-MS analysis; assay type: ADME, organism-based
[19] = Drug concentration in Sprague-Dawley rat plasma at 10 mg/kg, ip measured at 60 min by LC/MS-MS analysis; assay type: ADME, organism-based
[20] = Drug concentration in Sprague-Dawley rat plasma at 10 mg/kg, ip measured at 120 min by LC/MS-MS analysis; assay type: ADME, organism-based
[21] = Drug concentration in Sprague-Dawley rat brain at 10 mg/kg, ip measured at 15 min by LC/MS-MS analysis; assay type: ADME, organism-based; details: read-out: Ct
[22] = Drug concentration in Sprague-Dawley rat brain at 10 mg/kg, ip measured at 60 min by LC/MS-MS analysis; assay type: ADME, organism-based; details: read-out: Ct
[23] = Drug concentration in Sprague-Dawley rat brain at 10 mg/kg, ip measured at 120 min by LC/MS-MS analysis; assay type: ADME, organism-based; details: read-out: Ct
[24] = Ratio of drug concentration in brain to plasma in Sprague-Dawley rat at 10 mg/kg, ip measured at 15 min by LC-MS/MS analysis; assay type: ADME, organism-based; details: read-out: BPR
[25] = Ratio of drug concentration in brain to plasma in Sprague-Dawley rat at 10 mg/kg, ip measured at 60 min by LC-MS/MS analysis; assay type: ADME, organism-based; details: read-out: BPR
[26] = Ratio of drug concentration in brain to plasma in Sprague-Dawley rat at 10 mg/kg, ip measured at 120 min by LC-MS/MS analysis; assay type: ADME, organism-based; details: read-out: BPR
Hypothalamus [27] = assay: Inhibition of PCA-induced serotonin depletion in Sprague-Dawley rat hypothalamus assessed as recovery of 5-HT concentration at 10 mg/kg, ip by HPLC analysis (Rvb= 200 ng/g); assay type: functional
Hypothalamus [28] = assay: Inhibition of PCA-induced serotonin depletion in Sprague-Dawley rat hypothalamus assessed as recovery of 5-HT concentration at 3 mg/kg, ip by HPLC analysis; assay type: functional, organism-based
Rattus norvegicus [29] = assay: Antidepressant activity in Sprague-Dawley rat assessed as reduction in immobility time at 3 mg/kg ip measured after 15 mins by forced swim test; assay type: functional; details: 0.25 h
[30] = Cmax in Sprague-Dawley rat at 1 mg/kg, iv measured upto 24 hrs by LC-MS/MS analysis; assay type: ADME, organism-based; parameters: time < 24 hrs, dose 1 mg/kg, route iv; details: in vivo
[31] = Clearance in Beagle dog at 1 mg/kg, iv measured upto 24 hrs by LC-MS/MS analysis; assay type: ADME, organism-based, Canis lupus familiaris; details: in vivo
[32] = Oral bioavailability in human at 2.5 to […]; assay type: ADME, organism-based; details: in vivo, dose lower 2.5 mg/kg
Hypothalamus [33] = assay: Inhibition of PCA-induced serotonin depletion in Sprague-Dawley rat hypothalamus assessed as recovery of 5-HT concentration at 1 mg/kg, ip by HPLC analysis; assay type: functional, organism-based
Rattus norvegicus [34] = assay: Antidepressant activity in ip dosed Sprague-Dawley rat assessed as reduction in immobility time measured after 15 mins by forced swim test; assay type: functional, organism-based; details: dose 3-10 mg/kg
Rattus norvegicus [35] = assay: Antidepressant activity in Sprague-Dawley rat assessed as reduction in immobility time at 10 mg/kg ip measured after 15 mins by forced swim test; assay type: functional; details: 0.25 h

Sodium-dependent serotonin transporter, sequence (P31645 whole entry): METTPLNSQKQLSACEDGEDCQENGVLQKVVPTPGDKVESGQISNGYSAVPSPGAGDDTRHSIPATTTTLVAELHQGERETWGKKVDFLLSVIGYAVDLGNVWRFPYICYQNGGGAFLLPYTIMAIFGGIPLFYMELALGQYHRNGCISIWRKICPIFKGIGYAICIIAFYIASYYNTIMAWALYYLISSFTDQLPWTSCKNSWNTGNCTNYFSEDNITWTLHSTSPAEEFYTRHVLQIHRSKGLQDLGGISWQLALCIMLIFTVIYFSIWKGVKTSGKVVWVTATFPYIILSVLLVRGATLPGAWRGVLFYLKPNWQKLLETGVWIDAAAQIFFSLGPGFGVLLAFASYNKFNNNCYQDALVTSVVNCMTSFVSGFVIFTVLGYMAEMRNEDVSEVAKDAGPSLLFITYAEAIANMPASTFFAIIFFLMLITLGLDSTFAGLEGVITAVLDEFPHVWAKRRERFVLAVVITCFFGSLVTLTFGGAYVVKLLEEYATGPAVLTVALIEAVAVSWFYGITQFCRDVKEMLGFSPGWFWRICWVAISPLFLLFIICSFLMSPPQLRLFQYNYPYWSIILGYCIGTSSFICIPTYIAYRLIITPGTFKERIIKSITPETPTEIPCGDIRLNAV

Structure (SMILES) | pIC50 [1] | Vd [2] | Vd [3] | Cmax [4] | Cmax [5] | Cmax [6] | AUCt [8] | AUC(0-t) at 24 h [9] | AUC(0-t) at 24 h [10] | half-life [11] | half-life [12] | half-life [13] | half-life [14] | bioavailability [16] | bioavailability [17] | Cmax [30] | AUCt [7] | CL [15] | CL [31] | also measured
COc1cc(F)ccc1-c1cnc(N2CCN(CCCCc3c[nH]c4ccc(C#N)cc34)CC2)nc1 | > 8.70 | – | – | – | – | – | – | – | – | – | – | – | – | – | – | – | – | – | – | –
N#Cc1ccc2[nH]cc(CCCCN3CCN(c4ncc(-c5ccc(Cl)cc5)cn4)CC3)c2c1 | 9.49 | 5.52 L/kg | 5.46 L/kg | 536 ng/mL | 207 ng/mL | 820 ng/mL | 2840 ng·h/mL | 2950 ng·h/mL | 6800 ng·h/mL | 9.52 h | 20.8 h | 9.73 h | 15.7 h | 52.6% | 47.8% | 444 ng/mL | 1870 ng·h/mL | 125 mL/min/kg | 61 mL/min/kg | –
Cc1ccc(Sc2ccccc2N2CCNCC2)c(C)c1 [VORTIOXETINE] | – | – | – | – | – | – | – | – | – | – | – | – | – | – | – | – | – | – | – | bioavailability [32]: 75%
N#Cc1ccc2[nH]cc(CCCCN3CCN(c4ncc(-c5ccc(F)cc5F)cn4)CC3)c2c1 | 9.24 | 3.4 L/kg | 6.41 L/kg | 520 ng/mL | 180 ng/mL | 794 ng/mL | 2820 ng·h/mL | 2790 ng·h/mL | 7540 ng·h/mL | 7.53 h | 4.39 h | 7.28 h | 16.4 h | 83.3% | 53.5% | 193 ng/mL | 1340 ng·h/mL | 193 mL/min/kg | 85.7 mL/min/kg | concentration at 0.25 h [18]: 253 ng/mL; concentration at 1 h [19]: 651 ng/mL; concentration at 2 h [20]: 935 ng/mL; concentration at 0.25 h [21]: 459 ng/g; concentration at 1 h [22]: 2240 ng/g; concentration at 2 h [23]: 2960 ng/g; Kp at 0.25 h [24]: 1.82; Kp at 1 h [25]: 3.45; Kp at 2 h [26]: 3.17; Activity (Hypothalamus [27]): 500 ng/g; Activity (Hypothalamus [33]): Active; Activity (Rattus norvegicus [34]): Dose-Dependent Effect; Time (Rattus norvegicus [35]): <100 s
COc1ccccc1-c1cnc(N2CCN(CCCCc3c[nH]c4ccc(C#N)cc34)CC2)nc1 | > 8.70 | – | – | – | – | – | – | – | – | – | – | – | – | – | – | – | – | – | – | –
N#Cc1ccc2[nH]cc(CCCCN3CCN(c4ncc(-c5cccc(C(N)=O)c5)cn4)CC3)c2c1 | 9.46 | 2.13 L/kg | 2.33 L/kg | 1100 ng/mL | 241 ng/mL | 662 ng/mL | 2330 ng·h/mL | 706 ng·h/mL | 4310 ng·h/mL | 1.59 h | 4.68 h | 1.95 h | 4.46 h | 39.2% | 37.2% | 400 ng/mL | 722 ng·h/mL | 382 mL/min/kg | 118 mL/min/kg | –

The next lines start with results.

pIC50 [1] | Vd [2] | Vd [3] | Cmax [4] | Cmax [5] | Cmax [6] | AUCt [8] | AUC(0-t) at 24 h [9] | AUC(0-t) at 24 h [10] | half-life [11] | half-life [12] | half-life [13] | half-life [14] | bioavailability [16] | bioavailability [17] | Cmax [30] | AUCt [7] | CL [15] | CL [31] | Structure (SMILES) | also measured
– | 2.14 L/kg | 3.74 L/kg | 488 ng/mL | 173 ng/mL | 454 ng/mL | 791 ng·h/mL | 443 ng·h/mL | 2020 ng·h/mL | 1.45 h | 1.32 h | 2.9 h | 2.15 h | 47.5% | 52.5% | – | – | – | – | N#Cc1ccc2[nH]cc(CCCCN3CCN(c4ccc5oc(C(N)=O)cc5c4)CC3)c2c1 [VILAZODONE] | AUC(0-t) at 24 h ([7]; Sprague-Dawley): 409 ng·h/mL; clearance ([15]; Sprague-Dawley): 40.2 mL/min/kg; concentration at 0.25 h [18]: 1330 ng/mL; concentration at 1 h [19]: 1330 ng/mL; concentration at 2 h [20]: 861 ng/mL; concentration at 0.25 h [21]: 190 ng/g; concentration at 1 h [22]: 606 ng/g; concentration at 2 h [23]: 457 ng/g; Kp at 0.25 h [24]: 0.56; Kp at 1 h [25]: 0.46; Kp at 2 h [26]: 0.53; Activity (Hypothalamus [27]): 400 ng/g; Activity (Hypothalamus [28]): Active; Time (Rattus norvegicus [29]): 100 s
> 8.70 | – | – | – | – | – | – | – | – | – | – | – | – | – | – | – | – | – | – | N#Cc1ccc2[nH]cc(CCCCN3CCN(c4ncc(-c5ccc(F)cc5)cn4)CC3)c2c1 | –
> 8.70 | – | – | – | – | – | – | – | – | – | – | – | – | – | – | – | – | – | – | N#Cc1ccc2[nH]cc(CCCCN3CCN(c4ncc(-c5ccc(C(N)=O)cc5)cn4)CC3)c2c1 | –
